Data as given in patent US20110136728A1, “METHODS OF INCREASING BONE FORMATION USING LEPTIN-RELATED PEPTIDES” (priority 2009, published 2011).
Non-standard residues stand in square brackets, D forms with d. Residues, ends and D or L forms follow the SMILES beside them.

Legend:
ob/ob mouse model [1] = test: Earlier study of OB3 and D-amino acid-substituted OB3 analogs: body weight gain, food and water intake, blood glucose; assay type: in vivo
Excerpt: Single-point D-amino acid substitution was used to study the structure-function relationships of each amino acid residue in OB3, and to increase its efficacy. The restricted domain represented by OB3 contains a functional epitope, which has the ability to mimic at least some of the effects of leptin on energy balance and glucose homeostasis.
The design of peptide ligands involved the introduction of conformational constraints into native sequences by techniques that include, but are not limited to, D-amino acid substitution or cyclization. (Hruby and Bonner, Methods Mol Biol. 35:201-40 (1994)). Systematic replacement of L-amino acids by their D-amino acid isoforms was used to determine the stereostructural requirements of specific residues in a peptide for peptide-receptor interaction, and to assess the contribution of certain secondary structural motifs, e.g., α-helix or β-turn, to the bioactivity of the peptide. (Hruby, Biopolymers 33(7):1073-82 (1993) and Hruby, Life Sci. 52(10):845-55 (1993)). This approach increased peptide resistance to enzymatic hydrolysis, and to enhance the properties of biologically active peptides, including receptor binding, functional potency, and duration of action. (See Fauchere et al., Adv. Drug Res., 23:127-139 (1992); Doherty et al., J. Med. Chem., 36:2585-2594 (1993); Kirby et al., J. Med. Chem., 36:3802-3808 (1993); Morita et al., FEBS Lett., 353:84-88 (1994)).
(See Rozhayskaya-Arena M, et al., Endocrinology 141:2501-2517 (2000); Grasso P et al., Regulatory Pep. 101:123-129 (2001)).

ob/ob mouse model [2] = conditions: Grasso et al., Regu. Pept. 101:123-129 (2001); cited from earlier work

CC(C)C[C@@H](NC(=O)[C@H](CO)NC(=O)[C@H](CS)NC(=O)[C@@H](N)CO)C(=O)N1CCC[C@H]1C(=O)N[C@@H](CCC(N)=O)C(=O)N[C@H](C(N)=O)[C@@H](C)O [mouse [D-Leu-4]-OB3] (H-SCS[dL]PQT-NH2; N-terminus assumed)
effectiveness compared to the other D-amino acid-substituted analogs (ob/ob mouse model [1]; compared to OB3, in most of the parameters measured): more effective than the other D-amino acid-substituted analogs | Water intake (ob/ob mouse model [1]; mouse, in vivo): significantly reduced water intake | anorexigenic activity compared with OB3 (ob/ob mouse model [1]; mouse, in vivo): greater anorexigenic activity than OB3 | antihyperglycemic effect and its time course (ob/ob mouse model [1]; mouse, in vivo): lowered blood glucose to levels seen in nondiabetic wild type mice within two days of peptide treatment | potency in reducing body weight gain relative to native OB3 (ob/ob mouse model [1]; mouse, in vivo): 2.6 fold | tissue sensitivity to insulin (ob/ob mouse model [2]): increases tissue sensitivity to insulin
